Measured values reported in US20120107323A1, “KINASE PROTEIN BINDING INHIBITORS” (University of Florida, priority 2009, published 2012).
Values belong to the compound of their own block, whether it stands above or below them.

Legend:
[1] = test system: KYSE70 esophageal cancer cells; assay: Cell viability (MTT), KYSE70; type: cell-based; settings: KYSE 70, 72 hours
Experimental: (§1) Cell viability (MTT) and CFSE Proliferation assay: Cells were plated in 96-well plates and let adhere overnight. After cell treatment, cell viability was measured by 3-(4,5-dimethylthiazol-2-yl)-2,5-diphenyl tetrazolium bromide (MTT) assay (CellTiter 96® Aqueous, Promega, Madison, Wis.).
(§2) Cell viability and detachment assays: After cells were treated with siRNA transfection, cell viability was measured by 3-(4,5-dimethylthiazol2-yl)-2,5-diphenyl tetrazolium bromide (MTT) assay (CellTiter 96® AQueous, Promega, Madison, Wis.). Briefly, 20 μl of the tetrazolium compound was added to each well. The cells were then incubated at 37° C. for 1 h. The plate was read at 490 nm with a plate reader to determine the viability. In detachment assays, detached and attached cells were harvested separately and counted in a hemocytometer. The percentage of detachment was calculated by dividing the number of detached cells by the total number of cells. Apoptosis assays: After treatment, attached and detached cells were collected, counted and prepared for terminal uridine deoxynucleotidyl transferase (TUNEL) assay by utilizing an APO-BRDU kit (BD Pharmingen, San Diego, Calif.) according to the manufacturer's instructions. Stained cells were analyzed with a fluorescence-activated cell sorting-Calibur flow cytometer (BD Biosciences). Calculation of the percentage of apoptotic cells in the sample was completed with CellQuest software (BD Biosciences). Apoptotic cells were also analyzed by Hoechst staining. Hoechst 33342 ([…]) was added to the fixed cells and the specimens were mounted on glass coverslips. The slides were viewed under the Zeiss microscope for apoptotic nuclei. The percent of apoptotic cells was calculated as the ratio of apoptotic cells to total number of cells.
(§3) In addition, the effect of INT2-31 on cell viability of esophageal, pancreatic and breast cancer cell lines was analyzed and the IC50 value for each cell line was determined, as shown in Table 1. […] Similar to melanoma results, INT2-31 inhibits viability more in cancer cells compared to normal cells. Sensitivity of the cells to INT2-31 varied and directly correlated to the FAK and IGF-1R expression level of the cells.

[2] = test system: KYSE140 esophageal cancer cells; assay: Cell viability (MTT), KYSE140; type: cell-based; settings: KYSE 140, 72 hours
Experimental: as §1, §2, §3

C8161 melanoma cells [3] = assay: Cell viability (MTT), C8161; type: cell-based, human; settings: C8161, MTT
Experimental: as §1, §2, §3
To determine the effect on melanoma cell viability, three human melanoma cell lines were exposed to increasing doses of INT2-31 for 72 h and the results compared to human melanocytes. […] The effects of INT2-31 varied in the three cell lines and was possibly related to constitutive FAK and IGF-1R activation with the least sensitive cell line (SK-MEL-28) having the greatest expression of FAK and IGF-1R.

FAK-NT2 and IGF-1R = target: T1, FAK-NT2 and IGF-1R (Homo sapiens, UniProt Q05397); assay: Immunofluorescent staining and confocal microscopy, colocalization; type: cell-based; settings: cells transfected in the presence of the compound
T1 construct: FAK-NT2 (a.a. 127-243); expressed in transfected cells
Experimental: Cells were fixed in 3.7% paraformaldehyde in 1×PBS for 10 min and permeabilized with 0.5% Triton X-100 for 5 minutes. Cells were then washed with 1×PBS, blocked with 25% normal goat serum in 1×PBS for 20 min and incubated with primary antibody (1:200 dilution in 25% goat serum) for 30 min at room temperature. After washing three times with 1×PBS, cells were incubated with a Texas Red-conjugated secondary antibody (1:400 dilution in 25% goat serum) for 30 min at room temperature and washed another three times with 1×PBS before observed under the microscope. For coimmunostaining experiments, cells were incubated with another primary antibody diluted 1:100 in 25% goat serum for 1 h. After washing three times with 1×PBS, a fluorescein isothiocyanate-conjugated secondary antibody (1:100 dilution) was applied to the coverslip. Cells immunostained with FAK and IGF-IR antibodies were evaluated for colocalization with a Leica confocal microscope and the MRC-1024 confocal laser scanning system. Cells treated with FAK-CD or FAK siRNA with or without test compound were stained with FAK antibody and evaluated for displacement of FAK from the focal adhesions with a Zeiss microscope. […] Colocalization is low for FAK-NT1, FAK-NT3 and FAK-CD.

A375 melanoma cells = assay: Cell viability (MTT), A375; type: cell-based, human; settings: A375, MTT
Experimental: as §1, §2
as §3, with “Sensitivity of the cells to INT2-31 varied and directly correlated to the FAK and IGF-1R expression level of the cells.” left out

IGF-1R+/+ and −/− MEFs = assay: MTT assay on IGF-1R wildtype and null fibroblasts; type: cell-based, mouse; settings: MTT, p<0.05
Experimental: as §1
(§4) Cell proliferation assay: Cell proliferation assay (Promega) using CellTiter 96 aqueous one solution was performed by adding a small amount of the One Solution Reagent directly to culture wells, incubating for 1-4 hours and then recording absorbance at 490 nm with a spectrophotometric plate reader. The quantity of formazan product as measured by the amount of 490 nm absorbance was directly proportional to the number of living cells in culture.
as §2

[4] = test system: FAK +/+ and FAK −/− mouse embryonic fibroblast; assay: MTT assay on FAK wildtype and null fibroblasts; type: cell-based; settings: MTT, p<0.05
Experimental: as §1, §4, §2

C8161 melanoma cells [5] = assay: Detachment assay, C8161 cells; type: cell-based, human; settings: INT2-31 5 μM at 72 h; TAE 226 at 48 h and 72 h
Experimental: In detachment assays, detached and attached cells were harvested separately and counted in a hemocytometer. The percentage of detachment was calculated by dividing the number of detached cells by the total number of cells.
Detachment assay: Cells were plated with and without compound for 24, 48, and 72 h, and detached and attached cells were counted in a hemocytometer. The percent of detachment was calculated by dividing the number of detached cells by the total number of cells and experiments performed in triplicate. Apoptosis assays: After treatment, attached and detached cells were collected, counted and prepared for terminal uridine deoxynucleotidyl transferase (TUNEL) assay by utilizing an APO-BRDU kit (BD Pharmingen, San Diego, Calif.) and cells analyzed with a FACSCalibur cytometer (Becton Dickinson, San Jose, Calif.). In addition, apoptotic cells were analyzed with Hoechst 33342 staining (1 μg/ml). The percent of apoptotic cells was calculated as the ratio of apoptotic cells to total number of cells.

T1 sequence (Q05397 127-243): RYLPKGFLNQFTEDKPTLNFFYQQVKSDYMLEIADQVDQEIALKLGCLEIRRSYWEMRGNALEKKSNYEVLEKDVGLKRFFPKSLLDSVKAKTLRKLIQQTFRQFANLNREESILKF

SMILES: O=c1[nH]cc(F)c(=O)[nH]1 [5-FU, 5-Fluorouracil, reference compound]
sensitivity of cells to single-agent treatment [1]: sensitive
sensitivity of cells to single-agent treatment [2]: sensitive

percentage of interaction between FAK-NT2 and IGF-1R (FAK-NT2 and IGF-1R): around 30%
SMILES: CC(=O)C1=C(O)C2(C)c3c(O)c(C)c(O)c(C(C)=O)c3OC2(Sc2ccccc2)CC1=O (centres unmarked) [NSC 250435, 1,1′-(1,7,9-Trihydroxy-8,9b-dimethyl-3-oxo-4-a-(phenylthio)-3,4,4a,9b-tetrahydrodibenzo-[b,d]furan-2,6-diyl)diethanone]
cell viability (in words) (C8161 melanoma cells [3]): inhibited cell viability
cell viability (in words) (A375 melanoma cells): inhibited cell viability

SMILES: Nc1ncnc2c1c(-c1cccc(OCc3ccccc3)c1)cn2C1CC(CN2CCC2)C1 (centres unmarked) [NVP AEW541, reference compound]
effect on IGF-1R wildtype compared to null fibroblasts (IGF-1R+/+ and −/− MEFs): increased effect
effect on FAK wildtype compared to null fibroblasts [4]: increased effect

SMILES: CNC(=O)c1ccccc1Nc1nc(Nc2ccc(N3CCOCC3)cc2OC)ncc1Cl [TAE 226, reference compound]
effect on detachment (in words) (C8161 melanoma cells [5]): Greater effects
